# In the NIST ThermoML archive (doi:10.1021/je400576e):
# ± gives the expanded uncertainty stated by the source.
# Conditions: for viscosity / mass density: 101 kPa, Liquid; for mass density: Vibrating tube method
SMILES,surface tension liquid-gas (293.15 K),viscosity (293.15 K),mass density (293.15 K),surface tension liquid-gas (298.15 K),viscosity (298.15 K),mass density (298.15 K),surface tension liquid-gas (303.15 K),viscosity (303.15 K),mass density (303.15 K),surface tension liquid-gas (313.15 K),viscosity (313.15 K),mass density (313.15 K),surface tension liquid-gas (323.15 K),viscosity (323.15 K),mass density (323.15 K),surface tension liquid-gas (333.15 K),viscosity (333.15 K),mass density (333.15 K)
CCCO [propan-1-ol],23.67 ± 0.72 mN/m,2.2 ± 0.28 mPa·s,804 ± 5 kg/m3,23.31 ± 0.72 mN/m,1.99 ± 0.26 mPa·s,800.1 ± 5.1 kg/m3,22.81 ± 0.7 mN/m,1.73 ± 0.22 mPa·s,796 ± 5 kg/m3,22.19 ± 0.69 mN/m,1.38 ± 0.18 mPa·s,788 ± 5 kg/m3,21.34 ± 0.67 mN/m,1.12 ± 0.15 mPa·s,780 ± 5 kg/m3,20.66 ± 0.65 mN/m,0.91 ± 0.12 mPa·s,–
CCOP(=O)([O-])OCC.CCn1cc[n+](C)c1 [1-ethyl-3-methylimidazolium diethyl phosphate],34.78 ± 1.3 mN/m,537.03 ± 99 mPa·s,1151 ± 10 kg/m3,34.46 ± 1.3 mN/m,320.89 ± 53 mPa·s,1146 ± 9 kg/m3,34.19 ± 1.2 mN/m,284.34 ± 46 mPa·s,1141 ± 9 kg/m3,33.54 ± 1.2 mN/m,150.96 ± 22 mPa·s,1130 ± 9 kg/m3,33.15 ± 1.2 mN/m,90.02 ± 12 mPa·s,1116 ± 9 kg/m3,32.81 ± 1.2 mN/m,58.02 ± 7.5 mPa·s,1103 ± 9 kg/m3
CC(C)O [propan-2-ol],21.28 ± 0.67 mN/m,2.41 ± 0.31 mPa·s,786 ± 5 kg/m3,20.94 ± 0.66 mN/m,2.06 ± 0.27 mPa·s,781 ± 5 kg/m3,20.54 ± 0.65 mN/m,1.79 ± 0.23 mPa·s,777 ± 5 kg/m3,19.97 ± 0.64 mN/m,1.35 ± 0.17 mPa·s,768 ± 5 kg/m3,18.87 ± 0.61 mN/m,1.03 ± 0.13 mPa·s,759 ± 5 kg/m3,18.11 ± 0.59 mN/m,0.82 ± 0.11 mPa·s,750 ± 5 kg/m3
"COP(=O)([O-])OC.Cn1cc[n+](C)c1 [1,3-dimethylimidazolium dimethylphosphate]",47.78 ± 1.5 mN/m,381.22 ± 65 mPa·s,1254 ± 9 kg/m3,46.98 ± 1.5 mN/m,336.74 ± 56 mPa·s,1250 ± 9 kg/m3,46.21 ± 1.4 mN/m,221.41 ± 34 mPa·s,1247 ± 9 kg/m3,44.89 ± 1.4 mN/m,178.66 ± 26 mPa·s,1240 ± 9 kg/m3,42.67 ± 1.4 mN/m,147.95 ± 21 mPa·s,1233 ± 9 kg/m3,41.99 ± 1.3 mN/m,133.73 ± 19 mPa·s,1230 ± 8 kg/m3
